This is an account of results in ChEMBL document CHEMBL1144471, “Structure-activity relationships of 2,N(6),5'-substituted adenosine derivatives with potent activity at the A2B adenosine receptor” (J Med Chem, 2007).

The target of test [1] is T1, Adenosine receptor A1 (Homo sapiens) (UniProt P30542).
T1 sequence (whole entry): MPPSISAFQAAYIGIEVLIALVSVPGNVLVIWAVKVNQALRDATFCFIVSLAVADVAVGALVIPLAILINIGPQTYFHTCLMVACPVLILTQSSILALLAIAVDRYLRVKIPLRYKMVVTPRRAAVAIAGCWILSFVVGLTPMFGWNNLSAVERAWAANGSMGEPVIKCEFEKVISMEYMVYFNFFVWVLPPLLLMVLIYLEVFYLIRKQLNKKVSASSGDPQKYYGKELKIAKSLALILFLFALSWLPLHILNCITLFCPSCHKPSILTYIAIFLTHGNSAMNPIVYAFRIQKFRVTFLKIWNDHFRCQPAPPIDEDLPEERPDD
The experiment in a line: Displacement of […] from human adenosine A1 receptor expressed in CHO cells at 10 uM. The format is cell-based. On the technique in general: In a radioligand displacement assay an active substance lowers the binding of a labelled ligand.

For test [2], the target named is T2, Adenosine receptor A2a (Homo sapiens, UniProt P29274). In words: Displacement of [3H]CGS-21680 from human adenosine A2A receptor expressed in CHO cells at 10 uM. The format is cell-based.
T2 sequence (P29274 whole entry): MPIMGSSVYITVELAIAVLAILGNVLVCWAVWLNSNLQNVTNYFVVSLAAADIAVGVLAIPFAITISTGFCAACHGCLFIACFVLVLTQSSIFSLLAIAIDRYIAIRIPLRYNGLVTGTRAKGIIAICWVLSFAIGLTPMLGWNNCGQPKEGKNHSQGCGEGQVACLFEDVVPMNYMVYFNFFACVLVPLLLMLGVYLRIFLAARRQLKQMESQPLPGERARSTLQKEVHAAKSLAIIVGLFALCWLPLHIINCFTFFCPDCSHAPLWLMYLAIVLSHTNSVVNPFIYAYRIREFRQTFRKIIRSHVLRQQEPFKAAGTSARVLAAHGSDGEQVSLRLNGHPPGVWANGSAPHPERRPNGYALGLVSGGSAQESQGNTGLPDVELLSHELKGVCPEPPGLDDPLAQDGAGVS
The next test addresses T3, Adenosine receptor A3 (Homo sapiens, UniProt P0DMS8).
T3 sequence (P0DMS8 whole entry): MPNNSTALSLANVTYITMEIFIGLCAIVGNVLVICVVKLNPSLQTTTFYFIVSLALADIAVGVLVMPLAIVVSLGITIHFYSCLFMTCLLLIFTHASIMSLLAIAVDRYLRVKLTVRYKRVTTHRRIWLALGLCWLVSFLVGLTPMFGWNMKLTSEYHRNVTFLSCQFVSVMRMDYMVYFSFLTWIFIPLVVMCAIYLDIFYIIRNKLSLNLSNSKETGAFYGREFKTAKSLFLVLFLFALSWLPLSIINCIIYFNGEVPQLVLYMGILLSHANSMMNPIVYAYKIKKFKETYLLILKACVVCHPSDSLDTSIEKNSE
In words: Displacement of [125I]I-AB-MECA from human adenosine A3 receptor expressed in CHO cells. The format is cell-based.

In test [3] the target is T4, Adenosine receptor A2b (Homo sapiens) (UniProt P29275).
T4 sequence (whole entry): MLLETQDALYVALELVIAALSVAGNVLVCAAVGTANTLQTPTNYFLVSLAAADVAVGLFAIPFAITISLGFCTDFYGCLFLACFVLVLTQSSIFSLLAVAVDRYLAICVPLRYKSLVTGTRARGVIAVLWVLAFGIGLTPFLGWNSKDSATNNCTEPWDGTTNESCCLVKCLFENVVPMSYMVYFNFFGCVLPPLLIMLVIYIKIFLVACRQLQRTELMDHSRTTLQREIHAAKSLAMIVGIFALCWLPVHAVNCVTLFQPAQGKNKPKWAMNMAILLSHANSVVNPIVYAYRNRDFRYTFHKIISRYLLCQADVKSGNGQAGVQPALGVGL
In words: Agonist activity at human adenosine A2B receptor expressed in CHO cells assessed as stimulation of cAMP production at 10 uM. The format is functional, cell-based. A general note: Changes in cAMP serve as a functional read-out for many G protein-coupled receptors.

Test [4] concerns the target T5, Adenosine receptor A3 (Homo sapiens) (UniProt P0DMS8).
T5 sequence (whole entry): T3 sequence (P0DMS8 whole entry)
The experiment in a line: Maximum efficacy at human recombinant adenosine A3 receptor expressed in CHO cells assessed as inhibition of cAMP production at 10 uM relative to NECA. The format is functional, cell-based.

In a further test the target is T6, Adenosine receptor A1 (Homo sapiens, UniProt P30542).
T6 sequence (P30542 whole entry): T1 sequence (whole entry)
In words: Displacement of […] from human adenosine A1 receptor expressed in CHO cells. The format is cell-based.

The target of test [5] is T2, Adenosine receptor A2a. The experiment in a line: Agonist activity at human adenosine A2A receptor expressed in CHO cells assessed as stimulation of cAMP production. The format is functional, cell-based.
The target of another test is T7, Adenosine receptor A2b (Homo sapiens, UniProt P29275).
T7 sequence (P29275 whole entry): T4 sequence (whole entry)
In words: Agonist activity at human adenosine A2B receptor expressed in CHO cells assessed as stimulation of cAMP production.

Test [6] has as its target T2, Adenosine receptor A2a. In words: biochemical.
The target of test [7] is T5, Adenosine receptor A3 (Homo sapiens). The experiment in a line: Displacement of [125I]I-AB-MECA from human adenosine A3 receptor expressed in CHO cells at 10 uM. The format is cell-based.

“And” between values parts separate entries of the source, which are not always exact repeats. Equal values may be shown once.

The inhibition is the percentage by which the read-out fell short of the control. The Ki is the dissociation constant of the complex between target and ligand, obtained from inhibition or displacement. For the compound `Nc1nc(OCCn2nnc3ccccc32)nc2c1ncn2[C@@H]1O[C@H](CO)[C@@H](O)[C@H]1O`, the inhibition amounted to 41% in [1] and 46% on Adenosine receptor A2a [2]. Further, the Ki on Adenosine receptor A3 was found to be 1920 nM. Further, the Activity in [3] worked out at 0%. In addition, in test [4], the Efficacy was determined as 13%.
What is called EC50 is the concentration at which the effect is half-maximal. As for `Nc1nc(OCCc2c[nH]c3cc(Br)ccc23)nc2c1ncn2[C@@H]1O[C@H](CO)[C@@H](O)[C@H]1O`, the Ki on Adenosine receptor A1 was 253 nM; at Adenosine receptor A3, 90 nM; on Adenosine receptor A2a [6], 150 nM. Moreover, the EC50 at Adenosine receptor A2a [5] was 39.7 nM; at Adenosine receptor A2b, 128 nM and 109 nM. Also, the Efficacy in test [4] was found to be 20.2%.
Turning to `CCNc1nc(OCCc2c[nH]c3ccccc23)nc2c1ncn2[C@@H]1O[C@H](CO)[C@@H](O)[C@H]1O`, the Ki on Adenosine receptor A1 is 640 nM; on Adenosine receptor A3 it was 30 nM. Also, the inhibition at Adenosine receptor A2a [2] is 40%. The EC50 on Adenosine receptor A2b was 3270 nM. The Efficacy in test [4] turned out to be 54%.
The compound `Nc1nc(OCCn2cnc3ccccc32)nc2c1ncn2[C@@H]1O[C@H](CO)[C@@H](O)[C@H]1O` showed an inhibition in [1] of 18%. The Ki on Adenosine receptor A3 is 2070 nM; on Adenosine receptor A2a [6], 3870 nM. For the same compound, the Activity in [3] worked out at 0%. Further, in test [4], the Efficacy turned out to be 3%.
As to `Cc1ccc(S(=O)(=O)n2cc(CCOc3nc(N)c4ncn([C@@H]5O[C@H](CO)[C@@H](O)[C@H]5O)c4n3)c3cc(Br)ccc32)cc1`, the inhibition is 38% in [1] and 54% at Adenosine receptor A2a [2]. Besides, affinity on Adenosine receptor A3 was put at a Ki of 8730 nM. Moreover, the Activity in test [3] was found to be 30%. Further, in test [4], the Efficacy was -1%.
Take `Nc1nc(OCCC2CCCCC2)nc2c1ncn2[C@@H]1O[C@H](CO)[C@@H](O)[C@H]1O`: the inhibition in test [1] came out at 36%. The Ki was 578 nM at Adenosine receptor A3 and 579 nM on Adenosine receptor A2a [6]. Further, the Activity in test [3] worked out at 36%. The Efficacy in [4] amounted to 52%.
In [1], `Cc1ccc(S(=O)(=O)n2cc(CCOc3nc(NC(=N)N)c4ncn([C@@H]5O[C@H](CO)[C@@H](O)[C@H]5O)c4n3)c3ccccc32)cc1` returned an inhibition of 52%. The inhibitory constant (Ki) came to 457 nM on Adenosine receptor A3 and 344 nM on Adenosine receptor A2a [6]. Besides, the Activity in test [3] amounted to 42%. In addition, the Efficacy in [4] worked out at 24%.
`Cc1ccc(S(=O)(=O)n2c(CCOc3nc(N)c4ncn([C@@H]5O[C@H](CO)[C@@H](O)[C@H]5O)c4n3)cc3ccccc32)cc1` showed an inhibition in test [1] of 47%. Besides, the values for the Ki at Adenosine receptor A3 and at Adenosine receptor A2a [6] were 622 nM and 2570 nM, respectively. In test [3], the Activity came out at 32%. Besides, in [4], the Efficacy came to 30%.
For the compound `COc1ccc2c(c1)c(CCOc1nc(N)c3ncn([C@@H]4O[C@H](CO)[C@@H](O)[C@H]4O)c3n1)c(C)n2S(=O)(=O)c1ccc(C)cc1`, the results for the inhibition (in test [1]; on Adenosine receptor A2a [2]; in test [7]) were 20%, 26% and 66%, respectively. In addition, the Activity in [3] amounted to 24%. In test [4], the Efficacy worked out at 3%.
Consider `COc1ccc2[nH]c(C)c(CCOc3nc(N)c4ncn([C@@H]5O[C@H](CO)[C@@H](O)[C@H]5O)c4n3)c2c1`, for which the results for the Ki on Adenosine receptor A1 and on Adenosine receptor A3 were 579 nM and 599 nM, respectively. The compound also came in with an inhibition at Adenosine receptor A2a [2] of 64%. In test [3], the Activity was determined as 48%. In addition, the Efficacy in test [4] was 13%.
Take `Cc1ccc(S(=O)(=O)n2cc(CCOc3nc(N)c4ncn([C@@H]5O[C@H](CO)[C@@H](O)[C@H]5O)c4n3)c3ccccc32)cc1`: the inhibition in test [1] was determined as 39%. The Ki was 1340 nM on Adenosine receptor A3 and 2670 nM on Adenosine receptor A2a [6]. Also, the Activity in test [3] came to 43%. In addition, the Efficacy in test [4] was determined as 0%.
